{"source": "ChEMBL document CHEMBL1201862", "about": "“PubChem BioAssay data set” (2004)", "experiment_in_all_cases": "NCI tumour cell line growth inhibition, 48 h", "key": {"A498": {"system": "A498"}, "SNB-75": {"system": "SNB-75"}, "Malme-3M": {"system": "Malme-3M"}, "MDA-MB-231": {"system": "MDA-MB-231"}, "NCI-H23": {"system": "NCI-H23"}, "MDA-MB-435": {"system": "MDA-MB-435"}, "IGROV-1": {"system": "IGROV-1"}, "HOP-62": {"system": "HOP-62"}, "HCT-116": {"system": "HCT-116"}, "786-0": {"system": "786-0"}, "TK-10": {"system": "TK-10"}, "MOLT-4": {"system": "MOLT-4"}, "SK-MEL-2": {"system": "SK-MEL-2"}, "OVCAR-4": {"system": "OVCAR-4"}, "SK-OV-3": {"system": "SK-OV-3"}, "NCI-H460": {"system": "NCI-H460"}, "HCC 2998": {"system": "HCC 2998"}, "OVCAR-8": {"system": "OVCAR-8"}, "UACC-257": {"system": "UACC-257"}, "MCF7": {"system": "MCF7"}, "UO-31": {"system": "UO-31"}, "HOP-92": {"system": "HOP-92"}, "RXF 393": {"system": "RXF 393"}, "K562": {"system": "K562"}, "SF-539": {"system": "SF-539"}, "M14": {"system": "M14"}, "SF-295": {"system": "SF-295"}, "SW-620": {"system": "SW-620"}, "CAKI-1": {"system": "CAKI-1"}, "SR": {"system": "SR"}, "OVCAR-5": {"system": "OVCAR-5"}, "BT-549": {"system": "BT-549"}, "Hs-578T": {"system": "Hs-578T"}, "HCT-15": {"system": "HCT-15"}, "SN12C": {"system": "SN12C"}, "SK-MEL-28": {"system": "SK-MEL-28"}, "OVCAR-3": {"system": "OVCAR-3"}, "COLO 205": {"system": "COLO 205"}, "ACHN": {"system": "ACHN"}, "U-251": {"system": "U-251"}, "NCI-H226": {"system": "NCI-H226"}, "A549": {"system": "A549"}, "EKVX": {"system": "EKVX"}, "PC-3": {"system": "PC-3"}, "SNB-19": {"system": "SNB-19"}, "NCI-H522": {"system": "NCI-H522"}, "SK-MEL-5": {"system": "SK-MEL-5"}, "T47D": {"system": "T47D"}, "DU-145": {"system": "DU-145"}, "SF-268": {"system": "SF-268"}, "CCRF-CEM": {"system": "CCRF-CEM"}, "HT-29": {"system": "HT-29"}, "UACC-62": {"system": "UACC-62"}, "KM12": {"system": "KM12"}, "NCI/ADR-RES": {"system": "NCI/ADR-RES"}}, "note": "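Exposure lasted 48 hours, with cells grown in 96-well plates and compounds tested at five concentrations. At the GI50, growth is halved.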 Active and inactive are the calls of the source. Rule as the data show it: active = GI50 up to about 1.1 µM and inactive = higher."}
{"smiles": "Cn1nc2ccc(Nc3cc(=O)[nH]c4ccc5nn(C)nc5c34)cc2n1", "values": [{"measurement": "GI50", "setting": "A498", "result": "> 100 µM (inactive)"}, {"measurement": "GI50", "setting": "SNB-75", "result": "> 100 µM (inactive)"}, {"measurement": "GI50", "setting": "Malme-3M", "result": "> 100 µM (inactive)"}, {"measurement": "GI50", "setting": "MDA-MB-231", "result": "> 100 µM (inactive)"}, {"measurement": "GI50", "setting": "NCI-H23", "result": "> 100 µM (inactive)"}, {"measurement": "GI50", "setting": "MDA-MB-435", "result": "> 100 µM (inactive)"}, {"measurement": "GI50", "setting": "IGROV-1", "result": "50.5 µM (inactive)"}, {"measurement": "GI50", "setting": "HOP-62", "result": "> 100 µM (inactive)"}, {"measurement": "GI50", "setting": "HCT-116", "result": "> 100 µM (inactive)"}, {"measurement": "GI50", "setting": "786-0", "result": "> 100 µM (inactive)"}, {"measurement": "GI50", "setting": "TK-10", "result": "> 100 µM (inactive)"}, {"measurement": "GI50", "setting": "MOLT-4", "result": "82.2 µM (inactive)"}, {"measurement": "GI50", "setting": "SK-MEL-2", "result": "> 100 µM (inactive)"}, {"measurement": "GI50", "setting": "OVCAR-4", "result": "> 100 µM (inactive)"}, {"measurement": "GI50", "setting": "SK-OV-3", "result": "> 100 µM (inactive)"}, {"measurement": "GI50", "setting": "NCI-H460", "result": "> 100 µM (inactive)"}, {"measurement": "GI50", "setting": "HCC 2998", "result": "> 100 µM (inactive)"}, {"measurement": "GI50", "setting": "OVCAR-8", "result": "> 100 µM (inactive)"}, {"measurement": "GI50", "setting": "UACC-257", "result": "> 100 µM (inactive)"}, {"measurement": "GI50", "setting": "MCF7", "result": "> 100 µM (inactive)"}, {"measurement": "GI50", "setting": "UO-31", "result": "> 100 µM (inactive)"}, {"measurement": "GI50", "setting": "HOP-92", "result": "> 100 µM (inactive)"}, {"measurement": "GI50", "setting": "RXF 393", "result": "> 100 µM (inactive)"}, {"measurement": "GI50", "setting": "K562", "result": "50 µM (inactive)"}, {"measurement": "GI50", "setting": "SF-539", "result": "> 100 µM (inactive)"}, {"measurement": "GI50", "setting": "M14", "result": "> 100 µM (inactive)"}, {"measurement": "GI50", "setting": "SF-295", "result": "> 100 µM (inactive)"}, {"measurement": "GI50", "setting": "SW-620", "result": "> 100 µM (inactive)"}, {"measurement": "GI50", "setting": "CAKI-1", "result": "> 100 µM (inactive)"}, {"measurement": "GI50", "setting": "SR", "result": "53.2 µM (inactive)"}, {"measurement": "GI50", "setting": "OVCAR-5", "result": "> 100 µM (inactive)"}, {"measurement": "GI50", "setting": "BT-549", "result": "> 100 µM (inactive)"}, {"measurement": "GI50", "setting": "Hs-578T", "result": "> 100 µM (inactive)"}, {"measurement": "GI50", "setting": "HCT-15", "result": "> 100", "unit": "µM"}, {"measurement": "GI50", "setting": "SN12C", "result": "> 100 µM (inactive)"}, {"measurement": "GI50", "setting": "SK-MEL-28", "result": "> 100 µM (inactive)"}, {"measurement": "GI50", "setting": "OVCAR-3", "result": "> 100 µM (inactive)"}, {"measurement": "GI50", "setting": "COLO 205", "result": "> 100 µM (inactive)"}, {"measurement": "GI50", "setting": "ACHN", "result": "> 100 µM (inactive)"}, {"measurement": "GI50", "setting": "U-251", "result": "> 100 µM (inactive)"}, {"measurement": "GI50", "setting": "NCI-H226", "result": "> 100 µM (inactive)"}, {"measurement": "GI50", "setting": "A549", "result": "> 100 µM (inactive)"}, {"measurement": "GI50", "setting": "EKVX", "result": "> 100 µM (inactive)"}, {"measurement": "GI50", "setting": "PC-3", "result": "> 100 µM (inactive)"}, {"measurement": "GI50", "setting": "SNB-19", "result": "> 100 µM (inactive)"}, {"measurement": "GI50", "setting": "NCI-H522", "result": "65.6 µM (inactive)"}, {"measurement": "GI50", "setting": "SK-MEL-5", "result": "> 100 µM (inactive)"}, {"measurement": "GI50", "setting": "T47D", "result": "> 100 µM (inactive)"}, {"measurement": "GI50", "setting": "DU-145", "result": "> 100 µM (inactive)"}, {"measurement": "GI50", "setting": "SF-268", "result": "> 100 µM (inactive)"}, {"measurement": "GI50", "setting": "CCRF-CEM", "result": "> 100 µM (inactive)"}, {"measurement": "GI50", "setting": "HT-29", "result": "> 100 µM (inactive)"}, {"measurement": "GI50", "setting": "UACC-62", "result": "> 100 µM (inactive)"}, {"measurement": "GI50", "setting": "KM12", "result": "> 100 µM (inactive)"}, {"measurement": "GI50", "setting": "NCI/ADR-RES", "result": "> 100 µM (inactive)"}]}
